The source of these data is ChEMBL document CHEMBL4354881, “Optimization of Potent ATAD2 and CECR2 Bromodomain Inhibitors with an Atypical Binding Mode” (J Med Chem, 2020).

Molecules are shown by their SMILES.

Assay [1] deals with T1, ATPase family AAA domain-containing protein 2 (Homo sapiens, UniProt Q6PL18).
T1 sequence (Q6PL18 whole entry): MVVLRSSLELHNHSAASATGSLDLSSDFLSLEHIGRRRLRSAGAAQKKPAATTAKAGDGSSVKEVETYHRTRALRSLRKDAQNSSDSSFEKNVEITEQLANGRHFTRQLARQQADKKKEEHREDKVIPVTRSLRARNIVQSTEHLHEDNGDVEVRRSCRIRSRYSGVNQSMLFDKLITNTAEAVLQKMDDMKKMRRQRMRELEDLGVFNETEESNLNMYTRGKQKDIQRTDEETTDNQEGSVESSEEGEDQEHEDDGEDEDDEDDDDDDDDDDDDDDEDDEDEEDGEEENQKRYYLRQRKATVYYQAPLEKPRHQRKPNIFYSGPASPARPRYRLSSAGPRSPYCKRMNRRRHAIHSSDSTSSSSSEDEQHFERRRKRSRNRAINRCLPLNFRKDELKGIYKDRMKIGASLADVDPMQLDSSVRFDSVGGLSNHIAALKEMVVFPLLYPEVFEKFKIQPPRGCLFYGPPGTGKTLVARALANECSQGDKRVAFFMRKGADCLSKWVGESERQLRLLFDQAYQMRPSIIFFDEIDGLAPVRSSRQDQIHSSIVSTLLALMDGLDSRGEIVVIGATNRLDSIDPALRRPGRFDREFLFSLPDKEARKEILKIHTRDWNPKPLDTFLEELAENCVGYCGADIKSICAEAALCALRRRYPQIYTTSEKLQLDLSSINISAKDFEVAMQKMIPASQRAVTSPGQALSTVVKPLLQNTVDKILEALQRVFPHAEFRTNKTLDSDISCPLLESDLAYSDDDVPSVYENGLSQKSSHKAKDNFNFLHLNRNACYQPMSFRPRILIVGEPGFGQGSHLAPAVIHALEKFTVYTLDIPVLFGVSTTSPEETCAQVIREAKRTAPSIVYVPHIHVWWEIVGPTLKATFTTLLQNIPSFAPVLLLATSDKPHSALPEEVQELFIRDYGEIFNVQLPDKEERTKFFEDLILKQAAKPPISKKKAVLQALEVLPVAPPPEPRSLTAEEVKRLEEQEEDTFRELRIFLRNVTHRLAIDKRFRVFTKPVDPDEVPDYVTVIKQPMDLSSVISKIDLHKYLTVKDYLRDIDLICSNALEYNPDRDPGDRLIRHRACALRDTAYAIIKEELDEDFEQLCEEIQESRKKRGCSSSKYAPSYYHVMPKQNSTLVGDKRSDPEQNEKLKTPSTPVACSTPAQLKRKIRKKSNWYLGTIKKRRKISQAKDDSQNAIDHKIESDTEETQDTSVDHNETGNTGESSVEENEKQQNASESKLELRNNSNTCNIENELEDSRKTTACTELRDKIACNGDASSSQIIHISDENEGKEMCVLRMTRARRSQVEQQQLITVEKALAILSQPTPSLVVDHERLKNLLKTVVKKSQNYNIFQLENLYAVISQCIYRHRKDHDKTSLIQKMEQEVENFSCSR
As to the kind of experiment: Displacement of Alexa Fluor 488-labeled ligand from FLAG-6His-Tev-fused ATAD2 (981 to 1121 residue) (unknown origin) measured after 30 mins by TR-FRET assay. In general terms: TR-FRET usually uses a lanthanide donor and a delayed reading to cut background.

For assay [2], the target named is Chromatin remodeling regulator CECR2 (Homo sapiens, UniProt Q9BXF3). Description: Displacement of Alexa Fluor 647-labeled GSK tracer from FLAG-6His-Tev-fused CECR2 (424 to 543 residue) (unknown origin) measured after 15 mins by TR-FRET assay.
Assay [3] addresses Bromodomain-containing protein 4 (Homo sapiens, UniProt O60885, Y390A). Description: Displacement of Alexa Fluor 647-labeled ligand from BRD4 BD1 Y390A mutant (1 to 477 residue) (unknown origin) measured after 30 mins by TR-FRET assay.

Sequence of Chromatin remodeling regulator CECR2 (Q9BXF3 whole entry, the tested form may be a part): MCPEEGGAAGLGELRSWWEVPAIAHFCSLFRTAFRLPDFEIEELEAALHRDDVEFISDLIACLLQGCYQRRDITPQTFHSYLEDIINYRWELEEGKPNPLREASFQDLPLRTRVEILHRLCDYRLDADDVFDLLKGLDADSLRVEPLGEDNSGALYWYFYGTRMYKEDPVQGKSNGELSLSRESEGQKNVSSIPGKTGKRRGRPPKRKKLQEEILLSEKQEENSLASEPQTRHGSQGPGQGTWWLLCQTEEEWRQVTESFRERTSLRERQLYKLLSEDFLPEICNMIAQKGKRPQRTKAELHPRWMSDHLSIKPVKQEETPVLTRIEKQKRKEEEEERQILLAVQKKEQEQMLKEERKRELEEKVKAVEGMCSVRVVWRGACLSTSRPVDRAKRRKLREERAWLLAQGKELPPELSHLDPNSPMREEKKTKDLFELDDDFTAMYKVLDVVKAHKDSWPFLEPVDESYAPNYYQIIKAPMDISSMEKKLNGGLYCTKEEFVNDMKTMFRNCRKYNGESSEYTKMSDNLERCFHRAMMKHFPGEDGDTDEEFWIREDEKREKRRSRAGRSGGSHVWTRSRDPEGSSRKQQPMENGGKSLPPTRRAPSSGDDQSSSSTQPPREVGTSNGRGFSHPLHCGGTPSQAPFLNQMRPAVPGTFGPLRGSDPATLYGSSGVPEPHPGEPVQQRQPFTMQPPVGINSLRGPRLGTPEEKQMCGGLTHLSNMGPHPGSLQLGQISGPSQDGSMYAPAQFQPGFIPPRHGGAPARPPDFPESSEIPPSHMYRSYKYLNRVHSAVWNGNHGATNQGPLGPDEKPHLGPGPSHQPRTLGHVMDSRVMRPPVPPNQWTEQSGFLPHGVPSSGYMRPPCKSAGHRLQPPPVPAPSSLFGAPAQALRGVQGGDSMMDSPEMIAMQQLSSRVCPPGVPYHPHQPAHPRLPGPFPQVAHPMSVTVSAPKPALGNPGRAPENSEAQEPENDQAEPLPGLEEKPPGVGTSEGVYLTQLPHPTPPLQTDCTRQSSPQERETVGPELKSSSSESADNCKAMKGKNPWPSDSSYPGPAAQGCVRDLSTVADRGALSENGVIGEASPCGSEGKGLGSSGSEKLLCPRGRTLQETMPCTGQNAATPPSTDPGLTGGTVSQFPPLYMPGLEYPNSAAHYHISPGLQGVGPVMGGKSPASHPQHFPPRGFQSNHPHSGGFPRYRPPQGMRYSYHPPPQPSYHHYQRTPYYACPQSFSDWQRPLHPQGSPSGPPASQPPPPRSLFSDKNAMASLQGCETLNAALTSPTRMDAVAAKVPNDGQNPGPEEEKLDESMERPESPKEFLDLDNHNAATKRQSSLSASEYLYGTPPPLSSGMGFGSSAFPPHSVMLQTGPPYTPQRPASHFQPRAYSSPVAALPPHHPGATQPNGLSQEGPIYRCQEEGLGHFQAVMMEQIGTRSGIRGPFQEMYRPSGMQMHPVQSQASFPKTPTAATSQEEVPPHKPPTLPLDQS

Consider `O=C(CN1C(=O)CNC1=O)Nc1ccc(Cl)c(S(=O)(=O)N2CCCCC2)c1`, for which the half-inhibitory concentration (IC50) in assay [1] is 2510 nM; in assay [2], 31600 nM; in assay [3], greater than 50.1 µM.

`COCC1CCN(S(=O)(=O)c2cc(NC(=O)CN3C(=O)CNC3=O)ccc2Cl)C1` (racemic): the values for the IC50 in assay [1], in assay [2] and in assay [3] were 1000 nM, 3980 nM and greater than 50.1 µM, respectively.

Take `C[C@H]1CCN(S(=O)(=O)c2cc(NC(=O)Cn3c(=O)[nH]c4ccccc43)ccc2Br)C1`: the half-maximal inhibitory concentration (IC50) in assay [1] was 1260 nM; in assay [2], 501 nM; in assay [3], greater than 50.1 µM.

As to `COCc1cn(CC(=O)Nc2ccc(Br)c(S(=O)(=O)N3CC[C@H](C)C3)c2)nn1`, the IC50 in assay [1] is 2510 nM; in assay [2], 1580 nM; in assay [3] it was greater than 50.1 µM.

`CCC1CCN(S(=O)(=O)c2cc(NC(=O)CN3C(=O)CNC3=O)ccc2Cl)C1` (racemic): the IC50 in assay [1] is 631 nM; in assay [2], 1260 nM; in assay [3] it was greater than 50.1 µM.

In the case of `C[C@H]1CCN(S(=O)(=O)c2cc(NC(=O)Cn3nnc4c3CCN(C)C4)ccc2Br)C1`, the half-maximal inhibitory concentration (IC50) is 2000 nM in assay [1], 50.1 nM in assay [2] and greater than 50.1 µM in assay [3].

Take `C[C@H]1CCN(S(=O)(=O)c2cc(NC(=O)Cn3nnc4ccccc43)ccc2Br)C1`: the figures for the IC50 in assay [1], in assay [2] and in assay [3] were 2000 nM, 200 nM and 15.8 µM, respectively.

As to `O=C(CN1C(=O)CNC1=O)Nc1ccc(Cl)c(S(=O)(=O)N2CCC3(CC3)C2)c1`, the IC50 in assay [1] was 1000 nM; in assay [2], 3980 nM; in assay [3], greater than 50.1 µM.

For the molecule `C[C@H]1CCN(S(=O)(=O)c2cc(NC(=O)CN3C(=O)N[C@](C)(C4CC4)C3=O)ccc2Br)C1`, the results for the IC50 in assay [1], in assay [2] and in assay [3] were 100 nM, 126 nM and greater than 50.1 µM, respectively.

On to `CN1CCc2c(nnn2CC(=O)Nc2ccc(Cl)c(S(=O)(=O)N3CC[C@@H](C4CC4)C3)c2)C1`, for which the figures for the IC50 in assay [1], in assay [2] and in assay [3] were 6310 nM, 126 nM and 39.8 µM, respectively.

Regarding `C[C@H]1CCN(S(=O)(=O)c2cc(NC(=O)Cn3ccnn3)ccc2Br)C1`, the results for the IC50 in assay [1], in assay [2] and in assay [3] were 3980 nM, 3980 nM and greater than 50.1 µM, respectively.

Regarding `C[C@@H]1CN(S(=O)(=O)c2cc(NC(=O)CN3C(=O)CNC3=O)ccc2Cl)C[C@H]1C` (racemic), the IC50 is 251 nM in assay [1], 2000 nM in assay [2] and 20 µM in assay [3].

As to `C[C@H]1CCN(S(=O)(=O)c2cc(NC(=O)Cn3c(=O)oc4ccccc43)ccc2Br)C1`, the results for the IC50 in assay [1], in assay [2] and in assay [3] were 2000 nM, 63.1 nM and 10 µM, respectively.

Turning to `C[C@H]1CCN(S(=O)(=O)c2cc(NC(=O)Cn3nncc3CN(C)C)ccc2Br)C1`, the figures for the half-maximal inhibitory concentration (IC50) in assay [1], in assay [2] and in assay [3] were 3980 nM, 79.4 nM and greater than 50.1 µM, respectively.

As to `C[C@@H]1CCN(S(=O)(=O)c2cc(NC(=O)CN3C(=O)CNC3=O)ccc2Cl)C1`, the IC50 in assay [1] is 1000 nM; in assay [2], 5010 nM; in assay [3], greater than 50.1 µM.

Regarding `CC1(C)CCN(S(=O)(=O)c2cc(NC(=O)CN3C(=O)CNC3=O)ccc2Cl)C1`, the half-inhibitory concentration (IC50) in assay [1] was 3160 nM; in assay [2] it was 25100 nM; in assay [3] it was greater than 50.1 µM.

For the molecule `C[C@@]1(C2CC2)NC(=O)N(CC(=O)Nc2ccc(Br)c(S(=O)(=O)N3CCCC3)c2)C1=O`, the IC50 was 251 nM in assay [1], 398 nM in assay [2] and greater than 50.1 µM in assay [3].

Take `O=C(CN1C(=O)CNC1=O)Nc1ccc(Cl)c(S(=O)(=O)C2CCCCC2)c1`: the IC50 was greater than 100000 nM in assay [1], greater than 100000 nM in assay [2] and greater than 50.1 µM in assay [3].

Take `O=C(CN1C(=O)CNC1=O)Nc1ccc(Cl)c(S(=O)(=O)n2ccnc2)c1`: the IC50 was greater than 100000 nM in assay [1], greater than 100000 nM in assay [2] and greater than 50.1 µM in assay [3].

Regarding `C[C@H]1CCN(S(=O)(=O)c2cc(NC(=O)Cn3cc(CN(C)C)nn3)ccc2Br)C1`, the values for the IC50 in assay [1], in assay [2] and in assay [3] were 1260 nM, 251 nM and greater than 50.1 µM, respectively.

With `C[C@H]1CCN(S(=O)(=O)c2cc(NC(=O)CN3C(=O)CNC3=O)ccc2Cl)C1`, the figures for the half-maximal inhibitory concentration (IC50) in assay [1], in assay [2] and in assay [3] were 794 nM, 3160 nM and greater than 50.1 µM, respectively.

Turning to `CCCc1cnnn1CC(=O)Nc1ccc(Br)c(S(=O)(=O)N2CC[C@H](C)C2)c1`, the 50% inhibitory concentration (IC50) in assay [1] was 3160 nM; in assay [2] it was 79.4 nM; in assay [3], 10 µM.

Turning to `CC1CCCN1S(=O)(=O)c1cc(NC(=O)CN2C(=O)CNC2=O)ccc1Cl` (racemic), the IC50 was 2510 nM in assay [1], 7940 nM in assay [2] and 31.6 µM in assay [3].

Take `C[C@@H]1CN(S(=O)(=O)c2cc(NC(=O)CN3C(=O)NC(C)(C4CC4)C3=O)ccc2Br)C[C@H]1C` (relative stereo): the IC50 in assay [1] is 25.1 nM; in assay [2], 126 nM; in assay [3], 39.8 µM.

With `O=C(CN1C(=O)CNC1=O)Nc1ccc(Cl)c(S(=O)(=O)N2CCCCCC2)c1`, the IC50 in assay [1] is 1260 nM; in assay [2], 12600 nM; in assay [3] it was greater than 50.1 µM.

On to `CC(C)N1CCc2c(nnn2CC(=O)Nc2ccc(Br)c(S(=O)(=O)N3CC[C@H](C)C3)c2)C1`, for which the IC50 in assay [1] was 2000 nM; in assay [2] it was 31.6 nM; in assay [3] it was 50.1 µM.

For the molecule `CC(=O)N1CCc2c(nnn2CC(=O)Nc2ccc(Br)c(S(=O)(=O)N3CC[C@H](C)C3)c2)C1`, the IC50 in assay [1] is 1580 nM; in assay [2], 100 nM; in assay [3], greater than 50.1 µM.

On to `C[C@H]1CCN(S(=O)(=O)c2cc(NC(=O)Cn3nnc4c3CCNC4)ccc2Br)C1`, for which the results for the IC50 in assay [1], in assay [2] and in assay [3] were 2510 nM, 251 nM and 15.8 µM, respectively.

Regarding `CCN1CCc2c(nnn2CC(=O)Nc2ccc(Br)c(S(=O)(=O)N3CC[C@H](C)C3)c2)C1`, the values for the half-inhibitory concentration (IC50) in assay [1], in assay [2] and in assay [3] were 2510 nM, 50.1 nM and 31.6 µM, respectively.

For the molecule `CCCc1cn(CC(=O)Nc2ccc(Br)c(S(=O)(=O)N3CC[C@H](C)C3)c2)nn1`, the 50% inhibitory concentration (IC50) in assay [1] is 1580 nM; in assay [2], 1580 nM; in assay [3], 39.8 µM.

Consider `COCc1cnnn1CC(=O)Nc1ccc(Br)c(S(=O)(=O)N2CC[C@H](C)C2)c1`, for which the figures for the IC50 in assay [1], in assay [2] and in assay [3] were 1000 nM, 251 nM and 50.1 µM, respectively.

For the molecule `CN(C)S(=O)(=O)c1cc(NC(=O)CN2C(=O)CNC2=O)ccc1Cl`, the 50% inhibitory concentration (IC50) is 12600 nM in assay [1], 79400 nM in assay [2] and 39.8 µM in assay [3].

On to `C[C@H]1CCN(S(=O)(=O)c2cc(NC(=O)Cc3noc4ccccc34)ccc2Br)C1`, for which the IC50 in assay [1] is 1000 nM; in assay [2], 251 nM; in assay [3], 25.1 µM.

Take `CN1CCc2c(nnn2CC(=O)Nc2ccc(Br)c(S(=O)(=O)N3CC[C@@H](C4CC4)C3)c2)C1`: the values for the IC50 in assay [1], in assay [2] and in assay [3] were 3160 nM, 39.8 nM and 25.1 µM, respectively.

Take `Cc1nnn(CC(=O)Nc2ccc(Br)c(S(=O)(=O)N3CC[C@H](C)C3)c2)c1C`: the IC50 in assay [1] is 6310 nM; in assay [2], 1000 nM; in assay [3], greater than 50.1 µM.

Take `O=C(CN1C(=O)CNC1=O)Nc1ccc(Cl)c(S(=O)(=O)N2CCC(C3CC3)C2)c1` (racemic): the IC50 in assay [1] is 501 nM; in assay [2], 501 nM; in assay [3], greater than 50.1 µM.

Usually IC50 stands for the concentration needed to halve the response being measured. A higher IC50 goes with a need for much substance.
